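Interpolation was linear, between the two tested concentrations surrounding the appropriate level; five concentrations were tested over 48 hours in 96-well plates. GI50 marks 50% less growth. TGI denotes the concentration required for complete inhibition of growth.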
Legend:
Assay in all cases: DTP human tumour cell line panel, 48 h
HCT-15 colon = system: HCT-15 colon
PC-3 prostate = system: PC-3 prostate
786-0 renal = system: 786-0 renal
SK-MEL-2 melanoma = system: SK-MEL-2 melanoma
MOLT-4 leukemia = system: MOLT-4 leukemia
SF-268 CNS = system: SF-268 CNS
CAKI-1 renal = system: CAKI-1 renal
ACHN renal = system: ACHN renal
M14 melanoma = system: M14 melanoma
SW-620 colon = system: SW-620 colon

SMILES | TGI (HCT-15 colon) [µM] | TGI (PC-3 prostate) [µM] | TGI (786-0 renal) [µM] | TGI (SK-MEL-2 melanoma) [µM] | TGI (MOLT-4 leukemia) [µM] | TGI (SF-268 CNS) [µM] | TGI (CAKI-1 renal) [µM] | TGI (ACHN renal) [µM] | TGI (M14 melanoma) [µM] | TGI (SW-620 colon) [µM] | GI50 (HCT-15 colon) [µM] | GI50 (PC-3 prostate) [µM] | GI50 (786-0 renal) [µM] | GI50 (SK-MEL-2 melanoma) [µM] | GI50 (MOLT-4 leukemia) [µM] | GI50 (SF-268 CNS) [µM] | GI50 (CAKI-1 renal) [µM] | GI50 (ACHN renal) [µM] | GI50 (M14 melanoma) [µM] | GI50 (SW-620 colon) [µM]
C=C1c2[nH]c3ccccc3c2C2C(CC)C1CCN2C (stereo not given) | > 100 | > 100 | > 100 | > 100 | > 100 | > 100 | > 100 | > 100 | 67.6 | > 100 | – | – | – | – | – | – | – | – | – | –
COC(=O)NC1(NC(=O)OC)NC(=O)c2cc(OC)c(OC)c(OC)c2N1 | > 100 | 72.3 | > 100 | 8.85 | > 100 | > 100 | > 100 | > 100 | > 100 | > 100 | – | – | – | – | – | – | – | – | – | –
CN1C(=O)[C@@H](NC(=O)[C@H](CCC(F)(F)F)[C@H](CCC(F)(F)F)C(N)=O)N=C(c2ccccc2)c2ccccc21 | > 100 | > 100 | > 100 | > 100 | > 100 | > 100 | > 100 | > 100 | > 100 | > 100 | 89.5 | 55.7 | > 100 | > 100 | 27.3 | > 100 | > 100 | 45 | 50.9 | > 100
COc1ccc(-c2nc(C(=O)c3ccccc3)n(CC(=O)c3ccccc3)c2-c2ccc(OC)cc2)cc1 | > 100 | > 100 | > 100 | > 100 | > 100 | > 100 | > 100 | > 100 | > 100 | > 100 | > 100 | > 100 | > 100 | > 100 | > 100 | > 100 | > 100 | > 100 | > 100 | > 100
CCN1C2=NCCN2S(=O)(=O)c2ccccc21 | > 100 | > 100 | > 100 | > 100 | > 100 | > 100 | > 100 | > 100 | > 100 | > 100 | – | – | – | – | – | – | – | – | – | –
Cc1nc(CN2CCCCC2)c(O)c(=O)[nH]1 | > 100 | > 100 | > 100 | > 100 | > 100 | > 100 | > 100 | > 100 | > 100 | > 100 | – | – | – | – | – | – | – | – | – | –
S=C(Nc1ccc(Cl)cc1)Nc1ccc(-c2nc3ccccc3o2)cc1 | 25.7 | 51.4 | > 100 | 51.2 | > 100 | 76.7 | 39.8 | 35.8 | 52.9 | 60.3 | 10.9 | 15.4 | 26.3 | 24.2 | 18.5 | 16.5 | 12.3 | 17.3 | 23.2 | 19.8
Clc1ccc(C2=Nn3c(nnc3-c3cc(Cl)cc(Cl)c3Cl)SC2)cc1 | > 100 | > 100 | 38 | > 100 | > 100 | > 100 | 31.3 | 45.5 | > 100 | > 100 | 22.3 | 73.4 | 17.1 | 41.7 | 38.8 | 16.5 | 14.6 | 15.5 | 29 | 17.4

— PubChem BioAssay (NCI)
